# Data as given in patent publication US20240132461A1, “FLAVONE DEAZA SPERMIDINE ANALOGUES AND THEIR USE TREATING CANCER” (FLORATEK PHARMA S.A., priority 2021, published 2024).
# pIC50, pKd: −log10 of the molar value.
# Tests used:
# MCF-7 = experiment: Cell viability assay, breast carcinoma cell line MCF-7; assay type: cell-based; conditions: Homo sapiens, MCF7; MCF-7 breast carcinoma cell line
# Method: (§1) Antitumor activity of the compounds and doxorubicin as a positive control was assessed by using the CellTiter-Blue Cell Viability Assay (Promega, #G8082) or CellTiter-Glow® Luminescent Cell Viability assay (Promega # G7572) according to the manufacturer's instructions. The compounds were tested at 5 or 6 concentrations in half-log increments (highest concentration 30 μM-100 μM) in duplicate or triplicate well conditions.
# (§2) Tumor cells were grown at 37° C. in a humidified atmosphere with 5% CO2 in RPMI 1640 or DMEM medium, supplemented with 10% (v/v) fetal calf serum and 50 μg/ml gentamicin for up to 20 passages, and were passaged once or twice weekly. Cells were harvested using TrypLE or PBS buffer containing 1 mM EDTA, and the percentage of viable cells is determined using a CASY Model TT cell counter (OMNI Life Science). Cells were harvested from exponential phase cultures, counted and plated in 96 well flat-bottom microtiter plates at a cell density depending on the cell line's growth rate (4,000-20,000 cells/well depending on the cell line's growth rate, up to 60,000 for hematological cancer cell lines) in RPMI 1640 or DMEM medium supplemented with 10% (v/v) fetal calf serum and 50 μg/ml gentamicin (140 μl/well). […] Viability of cells was quantified by the CellTiter-Blue® cell viability assay (Promega G8081) or CellTiter-Glow® Luminescent Cell Viability assay (Promega # G7572). […]
# BR-05-0014E = experiment: PDX cytotoxicity assay, breast PDX BR-05-0014E; assay type: cell-based
# Method: (§3) PDX-derived cell cultures were obtained from tumors explanted from mice and isolated by mechanical and enzymatic dissociation. […] Cells were harvested and seeded in 96-wells plates at a density of 1.25 to 5×10^3 cells/well for cytotoxicity assays. Cells were incubated 48 h at 37° C. prior to addition of test molecules and vehicle (DMSO, 0.1%) at desired final concentrations. Cell viability was assessed before drugs' addition (T0) and 5 days after test molecules addition by measuring ATP cell content using CellTiter-Glo® Luminescent Cell Viability Assay (Promega) according to the manufacturer's instructions. Luciferase activity was measured on a luminometer (PerkinElmer® EnVision™). Each concentration of compounds was tested in triplicate.
# (§4) Viability was calculated as a percentage of ATP value compared to vehicle treated controls.
# (§5) For PDX primary cell cultures, the tumour tissue was washed with PBS containing antibiotic-antimycotic and non-tumour tissue and necrotic tumour tissues were separated. The tumour tissue was transferred to a new dish and cut into 1˜2 mm^3 fragments, resuspended in RPMI-1640 medium and centrifuged at 1,200 rpm for 6 min at room temperature. The pelleted material was resuspended with 15 mL of Tumour Cell Digestion Solution and incubated at 37° C. for 1 hour with agitation. […]
# K562 = experiment: Cell viability assay, leukaemia cell line K562; assay type: cell-based; conditions: Homo sapiens
# Method: as §1, §2
# NCI-H1299 = experiment: Cell viability assay, non-small cell lung carcinoma cell line NCI-H1299; assay type: cell-based; conditions: Homo sapiens
# Method: as §1
# (§6) Tumor cells were grown at 37° C. in a humidified atmosphere with 5% CO2 in RPMI 1640 or DMEM medium, supplemented with 10% (v/v) fetal calf serum and 50 μg/ml gentamicin for up to 20 passages, and were passaged once or twice weekly. Cells were harvested using TrypLE or PBS buffer containing 1 mM EDTA, and the percentage of viable cells is determined using a CASY Model TT cell counter (OMNI Life Science). Cells were harvested from exponential phase cultures, counted and plated in 96 well flat-bottom microtiter plates at a cell density depending on the cell line's growth rate (4,000-20,000 cells/well depending on the cell line's growth rate, up to 60,000 for hematological cancer cell lines) in RPMI 1640 or DMEM medium supplemented with 10% (v/v) fetal calf serum and 50 μg/ml gentamicin (140 μl/well). Cultures were incubated at 37° C. and 5% CO2 in a humidified atmosphere. After 24 h, 10 μl of test compounds or control medium are added, and left on the cells for another 72 h. Compounds were serially diluted in DMSO, transferred in cell culture medium, and added to the assay plates. The DMSO concentration was kept constant at <0.3% v/v across the assay plate. Viability of cells was quantified by the CellTiter-Blue® cell viability assay (Promega G8081) or CellTiter-Glow® Luminescent Cell Viability assay (Promega # G7572). Fluorescence (FU) was measured by using the EnSpire® multimode plate reader (Perkin Elmer) (excitation λ=570 nm, emission λ=600 nm) or luminescent detection of ATP in viable cells was used as parameter for proliferation. Luminescence was measured with the microplate luminometer (Promega or Perkin Elmer).
# (§7) Sigmoidal concentration-response curves were fitted to the data points (test-versus-control, T/C values) obtained for each tumor model using 4 parameter non-linear curve fit (Charles River DRS Datawarehouse Software) or with GraphPad prism 5.02 software. IC50 values are reported as absolute IC50 values, being the concentration of test compound at the intersection of the concentration-response curves with T/C=50%
# SU-DHL-4 = experiment: Cell viability assay, lymphoma cell line SU-DHL-4; assay type: cell-based; conditions: Homo sapiens; SU-DHL-4 lymphoma cell line
# Method: as §1, §2
# LY-24-0340 = experiment: PDX cytotoxicity assay, lymphoma PDX LY-24-0340; assay type: cell-based
# Method: as §3, §4, §5
# PIM2 = target: T1, PIM2 (Homo sapiens, UniProt Q9P1W9); experiment: KINOMEscan competition binding assay, PIM2
# T1 construct: purchased Eurofins (KINOMEscan assay service); host or cells: E. coli BL21-derived (T7 phage) or HEK-293
# T1 sequence (Q9P1W9 whole entry): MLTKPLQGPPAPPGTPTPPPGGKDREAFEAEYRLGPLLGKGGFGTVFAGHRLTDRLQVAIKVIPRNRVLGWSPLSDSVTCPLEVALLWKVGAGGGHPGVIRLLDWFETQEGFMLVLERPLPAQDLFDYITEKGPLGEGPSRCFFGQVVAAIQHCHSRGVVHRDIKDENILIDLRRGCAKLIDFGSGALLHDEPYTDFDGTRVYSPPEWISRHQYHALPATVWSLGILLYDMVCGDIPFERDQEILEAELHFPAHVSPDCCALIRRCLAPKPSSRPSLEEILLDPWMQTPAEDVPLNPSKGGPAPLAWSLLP
# Description: (§8) The Hill Slope was set to −1.
# PIM3 = target: T2, PIM3 (Homo sapiens, UniProt Q86V86); experiment: KINOMEscan competition binding assay, PIM3
# T2 construct: purchased Eurofins (KINOMEscan assay service); host or cells: E. coli BL21-derived (T7 phage) or HEK-293
# Description: as §8
# [1] = target: T3, RSK2(Kin.Dom.1-N-terminal) (Homo sapiens, UniProt P51812); experiment: KINOMEscan competition binding assay, RSK2(Kin.Dom.1-N-terminal)
# T3 construct: RSK2(Kin.Dom.1-N-terminal); purchased Eurofins (KINOMEscan assay service); host or cells: E. coli BL21-derived (T7 phage) or HEK-293
# T3 sequence (P51812 68-327 limits assumed): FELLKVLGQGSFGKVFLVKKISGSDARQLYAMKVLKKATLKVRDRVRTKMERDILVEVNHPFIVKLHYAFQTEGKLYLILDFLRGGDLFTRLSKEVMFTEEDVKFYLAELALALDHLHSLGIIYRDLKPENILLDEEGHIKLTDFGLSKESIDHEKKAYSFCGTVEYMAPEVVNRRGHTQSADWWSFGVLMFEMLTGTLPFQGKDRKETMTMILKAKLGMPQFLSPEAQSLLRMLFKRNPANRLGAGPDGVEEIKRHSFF
# Description: as §8
# [2] = In vivo maximum tolerated dose in NOG mice
# Method: In order to evaluate the general toxicity of selected SND compounds in an animal model, a maximum tolerated dose (MTD) in NOG mice has been undertaken. Three mice per group were treated daily or every other day over 8 days at various doses between 5 mg/kg and 10 mg/kg. Administration of the compounds was i.p. A stock solution of the compounds (40 mg/ml in DMSO) was prepared and frozen at −20° C. in aliquots for each treatment. […] Body weights were measured before each treatment. Mice were further observed for 1 week after the last treatment.
# brain cancer cell = experiment: Cell viability assay, brain cancer cell lines (summary); assay type: cell-based; conditions: summary of Tables 3A-D; read-out: IC50s, brain cancer cell growth
# Method: as §1, §6, §7
# [3] = tested on: U87MG human glioblastoma cells; experiment: In vivo tumour inhibition of xenograft human glioblastoma U87MG; conditions: 10 mg/kg/inj i.p. qod
smiles,measurement,setting,value
COc1c(O)ccc2c(=O)cc(-c3ccc(CNCCCCNCCCN)cc3)oc12 [SND164],pIC50,MCF-7,5.37
same,pIC50,BR-05-0014E,4.88
same,pIC50,K562,5.46
same,pIC50,NCI-H1299,5.90
same,pIC50,SU-DHL-4,5.48
same,pIC50,LY-24-0340,> 6.80
same,pKd,PIM2,6.20
same,pKd,PIM3,6.37
same,pKd,[1],5.85
same,tolerability at the highest dose administered,"[2]; 8-10 mg/kg i.p., daily or every other day over 8 days",well tolerated
same,MTD at 8 days,"[2]; mouse, in vivo, ip, repeated i.p. administration, MTD not reached, read-out: maximum tolerated dose (MTD), estimated",> 10 mg/kg
same,pIC50,brain cancer cell,> 5.00
same,body weight loss,[3]; U87MG xenograft mice,no significant body weight loss
same,death during the study,[3]; U87MG xenograft mice,no death
same,tolerability of the treatment,[3]; U87MG xenograft mice,well tolerated
same,"Optimum T/C, day 26","[3]; glioblastoma U87MG CDX s.c. in nude mice, 10 injections, ***P < 0.001 vs vehicle",54***
